Among the data in PubChem BioAssay (NCI) are GI50 and TGI values, retold here.

Where “and” joins values, the source holds several entries; their conditions need not be identical. Equal entries are not always repeated.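 Where inhibition never reached the appropriate level, the endpoint shown equals the highest concentration tested. Otherwise, values were interpolated linearly from a five-concentration, 48-hour dose response in 96-well plates. GI50 is the concentration that inhibits growth by half. Definition used: TGI = concentration required for complete inhibition of growth.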 Where only a bound is given, the exact number is not on record here.

Among the test systems are MALME-3M melanoma; LOX IMVI melanoma; DU-145 prostate; RXF 393 renal; BT-549 breast; EKVX NSCLC; UO-31 renal; HCT-15 colon; SK-MEL-2 melanoma; T-47D breast.
Test in all cases: NCI-60 cell line screen, 48 h

Regarding `CC(C)n1nc(C#Cc2cccc(O)c2)c2c(N)ncnc21`, the GI50 is 0.248 µM and 0.234 µM with MALME-3M melanoma; 0.685 µM and 0.316 µM with LOX IMVI melanoma; 1.67 µM and 1.51 µM in the experiment with DU-145 prostate; 1.15 µM and 0.481 µM in the experiment on RXF 393 renal; 1.33 µM and 1.34 µM in the experiment on BT-549 breast; 9.41 µM and 7.49 µM in the experiment with EKVX NSCLC. The GI50 in the experiment on UO-31 renal was 0.391 µM and 0.416 µM; in the experiment with HCT-15 colon, 1.35 µM and 0.906 µM; in the experiment on SK-MEL-2 melanoma it was 0.721 µM and 0.751 µM; in the experiment with T-47D breast it was 1.01 µM and 0.864 µM. For the same compound, the TGI with MALME-3M melanoma is 1.38 µM and 0.917 µM; with LOX IMVI melanoma, 2.64 µM and 1.19 µM; with DU-145 prostate it was 14.5 µM and 11.1 µM; in the experiment with RXF 393 renal it was 4.2 µM and 1.5 µM; with BT-549 breast, 4.56 µM and 6.18 µM; with EKVX NSCLC, 29 µM and 25.7 µM. Moreover, the TGI was 1.92 µM and 2.83 µM with UO-31 renal; 21.6 µM and 10.1 µM in the experiment with HCT-15 colon; 2.69 µM and 3.11 µM in the experiment on SK-MEL-2 melanoma; 3.38 µM and 4.09 µM with T-47D breast.
Take `O=C(O)c1ccc(NCc2nc3ccccc3[nH]2)cc1`: the GI50 is 1.25 µM in the experiment on MALME-3M melanoma; over 100 µM in the experiment on LOX IMVI melanoma; over 100 µM in the experiment with DU-145 prostate; over 100 µM with RXF 393 renal; over 100 µM in the experiment with BT-549 breast; over 100 µM in the experiment on EKVX NSCLC. In addition, the GI50 in the experiment on UO-31 renal, with HCT-15 colon, in the experiment on SK-MEL-2 melanoma and in the experiment on T-47D breast was over 100 µM in each case. The TGI was 7.52 µM with MALME-3M melanoma; over 100 µM with LOX IMVI melanoma; over 100 µM with DU-145 prostate; over 100 µM with RXF 393 renal; over 100 µM with BT-549 breast; over 100 µM in the experiment with EKVX NSCLC. Also, the TGI with UO-31 renal, in the experiment on HCT-15 colon, with SK-MEL-2 melanoma and in the experiment with T-47D breast was over 100 µM in each case.
Take `Cc1ccc(/C=C(/C#N)n2nnc3ncccc32)cc1`: the GI50 with MALME-3M melanoma was 1.76 µM; in the experiment on LOX IMVI melanoma, 3.08 µM; in the experiment on DU-145 prostate, 3.01 µM; in the experiment on RXF 393 renal it was 1.54 µM; in the experiment with BT-549 breast, 2.46 µM; in the experiment with EKVX NSCLC it was 2.88 µM. Besides, the GI50 in the experiment on UO-31 renal was 2.01 µM; with HCT-15 colon, 1.45 µM; in the experiment with SK-MEL-2 melanoma, 2.47 µM; in the experiment on T-47D breast it was 1.92 µM. Further, the TGI turned out to be 26 µM in the experiment on MALME-3M melanoma; 11.3 µM with LOX IMVI melanoma; 13.7 µM in the experiment on DU-145 prostate; 6.54 µM with RXF 393 renal; 19.7 µM in the experiment on BT-549 breast; 26.9 µM with EKVX NSCLC. Moreover, the TGI in the experiment with UO-31 renal is 12.4 µM; in the experiment on HCT-15 colon, 16.7 µM; with SK-MEL-2 melanoma it was 8.66 µM; in the experiment with T-47D breast it was 15.8 µM.
`O=C(/C=C/c1ccco1)Nc1ncc(Cc2cccc(C(F)(F)F)c2)s1`: the GI50 in the experiment on MALME-3M melanoma was 0.125 µM; with LOX IMVI melanoma it was 0.0572 µM; in the experiment on DU-145 prostate, 0.103 µM; with RXF 393 renal, 0.0576 µM; in the experiment with BT-549 breast, 0.248 µM; in the experiment with EKVX NSCLC, 0.117 µM. Moreover, the GI50 with UO-31 renal was 0.166 µM; in the experiment on HCT-15 colon it was 0.0465 µM; with SK-MEL-2 melanoma it was 0.0966 µM; in the experiment with T-47D breast it was 0.12 µM. Also, the TGI in the experiment with MALME-3M melanoma is 10.6 µM; with LOX IMVI melanoma it was 2.92 µM; in the experiment on DU-145 prostate, over 24.3 µM; in the experiment with RXF 393 renal, 0.853 µM; in the experiment on BT-549 breast, over 21.2 µM; in the experiment with EKVX NSCLC, over 55.8 µM. Moreover, the TGI with UO-31 renal is 5.13 µM; in the experiment on HCT-15 colon, over 34.3 µM; in the experiment on SK-MEL-2 melanoma, 5.28 µM; in the experiment with T-47D breast it was over 92.2 µM.
On to `O=C(NCCCl)NCCN1c2nc3ccccc3cc2Sc2cc3ccccc3nc21`, for which the GI50 in the experiment on MALME-3M melanoma is 0.968 µM; with LOX IMVI melanoma, 2.36 µM; in the experiment on DU-145 prostate it was 3.28 µM; with RXF 393 renal, 6.45 µM; in the experiment with BT-549 breast it was 7.01 µM; in the experiment with EKVX NSCLC, 3.45 µM. In addition, the GI50 in the experiment on UO-31 renal was 2.64 µM; in the experiment with HCT-15 colon it was 2.74 µM; in the experiment on SK-MEL-2 melanoma it was 2.21 µM; with T-47D breast, 2.04 µM. Besides, the TGI in the experiment on MALME-3M melanoma was 15.4 µM; with LOX IMVI melanoma it was 14.6 µM; in the experiment with DU-145 prostate, over 39.4 µM; in the experiment with RXF 393 renal it was 27.9 µM; in the experiment with BT-549 breast, over 48.6 µM; in the experiment on EKVX NSCLC, over 44.1 µM. In addition, the TGI in the experiment on UO-31 renal was over 52.1 µM; in the experiment on HCT-15 colon, over 40 µM; with SK-MEL-2 melanoma, 8.53 µM; in the experiment on T-47D breast, 12 µM.
Consider `NC(CP(=O)(O)O)C(=O)O` (stereo not given), for which the TGI in the experiment on MALME-3M melanoma, in the experiment with LOX IMVI melanoma, in the experiment with DU-145 prostate, in the experiment on RXF 393 renal, in the experiment with BT-549 breast and with EKVX NSCLC was over 100 µM throughout. The TGI in the experiment with UO-31 renal, with HCT-15 colon, in the experiment with SK-MEL-2 melanoma and in the experiment with T-47D breast was over 100 µM throughout.
As for `CC(=O)OC1CC2C(C)(C)CCC[C@]2(C)C2=C1C(O)=C(C(C)C)C(=O)C2=O` (stereo not given in full), the GI50 with MALME-3M melanoma was 0.341 µM; in the experiment on LOX IMVI melanoma, 1.15 µM; with DU-145 prostate it was 0.867 µM; with RXF 393 renal, 0.254 µM; with BT-549 breast, 1.16 µM; in the experiment with EKVX NSCLC, 0.3 µM. The GI50 in the experiment with UO-31 renal is 0.638 µM; with HCT-15 colon, 0.351 µM; in the experiment with SK-MEL-2 melanoma, 0.356 µM; in the experiment with T-47D breast, 0.739 µM. Besides, the TGI with MALME-3M melanoma came out at 1.59 µM; with LOX IMVI melanoma, 2.95 µM; with DU-145 prostate, 2.28 µM; in the experiment on RXF 393 renal, 1.02 µM; with BT-549 breast, 3.34 µM; in the experiment on EKVX NSCLC it was 1.53 µM. In addition, the TGI in the experiment with UO-31 renal stood at 2.06 µM; with HCT-15 colon, 2.04 µM; with SK-MEL-2 melanoma it was 1.39 µM; with T-47D breast it was 4.98 µM.
